Laboratory results published in US20030153571A1 (priority 2002, published 2003).

Columns and labels:
[1] = biological target: T1, NMDA receptor glycine site (Rattus norvegicus, UniProt P35439); assay: Test A: Inhibition of binding of [3H]-MDL105,519 to brain membranes; details: inhibition of [3H]MDL105,519 binding
T1 construct: to brain membranes bearing the receptor; tissue Analytical Biological Services Inc; host or cells: rat brain membranes (cerebral cortex and hippocampus, male Sprague Dawley rats)
Description: Test A: Inhibition of binding of [^3H]-MDL105,519:
Binding of compounds to the NMDA receptor glycine site may be assessed by measuring the ability of test compounds to inhibit the binding of tritiated MDL105,519 to brain membranes bearing the receptor.
Briefly, fresh brain tissue including cerebral cortex and hippocampus from male Sprague Dawley rats was homogenized in 0.32 M sucrose and centrifuged at low speed to separate cellular membranes from other cellular components. The membranes were then washed 3 times using deionized water, followed by treatment with 0.04% Triton X-100. Finally, membranes were washed six times in 50 mM Tris citrate buffer, pH 7.4, and frozen at −80° C. until use.
[^3H]MDL105,519 (72 Ci/mmol) was purchased from Amersham. Cold MDL105,519 was purchased from Sigma/RBI. […] On the day of the experiment, brain membranes were thawed at room temperature and suspended in 50 mM tris acetate buffer, pH 7.4 (“TAB”). Seventy-five micro grams per milliliter protein (by using the BioRad dye) were used for competition binding. The experiments were carried out using 96-well plates. […] Non specific binding was determined by using 100 μM of unlabeled MDL105,519. […] After incubation, unbound [^3H]MDL105,519 was removed by filtration onto GF/B Unifilter plates using a Packard harvester. Filters were washed four times with ice cold TAB (total of 1.2 mL buffer). The plates were dried overnight at room temperature and bound radioactivity was measured on a Packard TopCount after the addition of 45 μL per well of the MICROSCINT O.
Human Brain Membranes: Human brain membranes were obtained from Analytical Biological Services Inc., and assays were performed as described for rat membranes.
Data analysis: Data was analyzed using a Microsoft Excel spreadsheet and GraphPad Prizm software and potency of compounds is expressed as the Ki (nM).

[2] = test system: CCI rats (thermal hyperalgesia); assay: Test C: Neuropathic pain model (Chronic Constriction Injury), thermal hyperalgesia paw-withdrawal test; type: in vivo, rat; details: oral, three times daily for 5 days
Description: Test C: Neuropathic pain model (Chronic Constriction Injury):
The anti-hyperalgesic properties of a compound may be tested with the Chronic Constriction Injury (“CCI”) model. The test is a model for neuropathic pain associated with nerve injuries that can arise directly from trauma and compression, or indirectly from a wide range of diseases such as infection, cancer, metabolic conditions, toxins, nutritional deficiencies, immunological dysfunction, and musculoskeletal changes. In the model a unilateral peripheral hyperalgesia is produced in rats by nerve ligation (G. J. Bennett, et al., Pain 33, 87-107 (1988)).
Procedurally, Sprague-Dawley rats (250-350 g) are anesthetized with sodium pentobarbital and the common sciatic nerve is exposed at the level of the mid thigh by blunt dissection through the biceps femoris. […] Thermal hyperalgesia is measured using a paw-withdrawal test (K. Hargreaves, et al., Pain 32, 77-88 (1988)). […] The latencies for the withdrawal reflex in both hind paws are recorded.
Injured paws with ligated nerves show shorter paw withdrawal latencies compared to the uninjured or sham operated paws. Responses to test compounds are evaluated at different times after oral administration to determine the onset and duration of compound effect. […] Paw withdrawal latencies are measured each day 10 min before and 2 or 3 hr. after the first daily dose. […]

[3] = brain membranes (rat and human membranes described; table does not say which)

| Molecule | Ki [1, 3] [nM] | further results |
| --- | --- | --- |
| CC(c1ccco1)n1nc(O)c2[nH]c3cc(Cl)ccc3c(=O)c2c1=O (racemic) | 153 |  |
| CCC(c1ccccn1)n1[nH]c(=O)c2nc3cc(Cl)ccc3c(O)c2c1=O (racemic) [Ex. 4, (+/−)-7-Chloro-4-hydroxy-2-(propyl-1-(2-pyridyl))-1,2,5,10-tetrahydropyridazino [4,5-b]quinoline-1,10-dione methanesulfonate] | 1810 |  |
| CCCC(c1ccccn1)n1nc(O)c2[nH]c3cc(Cl)ccc3c(=O)c2c1=O (racemic) [Ex. 6, (+/−)-7-Chloro-4-hydroxy-2-(butyl-1-(2-pyridyl))-1,2,5,10-tetrahydropyridazino[4,5-b]quinoline-1,10-dione methanesulfonate] |  | Ki ([1]; brain membranes): > 10000 nM |
| CCCC(c1ccncc1)n1nc(O)c2[nH]c3cc(Cl)ccc3c(=O)c2c1=O (racemic) [Ex. 7, (+/−)-7-Chloro-4-hydroxy-2-(butyl-1-(4-pyridyl))-1,2,5,10-tetrahydropyridazino[4,5-b]quinoline-1,10-dione] | 4340 |  |
| CC(C)C(c1ccncc1)n1nc(O)c2[nH]c3cc(Cl)ccc3c(=O)c2c1=O (racemic) [Ex. 8, (+/−)-7-Chloro-4-hydroxy-2-(propyl-(2-methyl-1-(4-pyridyl))-1,2,5,10-tetrahydropyridazino[4,5-b]quinoline-1,10-dione methanesulfonate] | 5230 |  |
| CC(C)CC(c1ccncc1)n1[nH]c(=O)c2nc3cc(Cl)ccc3c(O)c2c1=O (racemic) [Ex. 12, (+/−)-7-Chloro-4-hydroxy-2-(3-methyl-1-(4-pyridyl)butyl)-1,2,5,10-tetrahydropyridazino[4,5-b]quinoline-1,10-dione] | 5230 |  |
| COc1cnccc1C(C)n1nc(O)c2[nH]c3cc(Cl)ccc3c(=O)c2c1=O (racemic) [Ex. 13, (+/−)7-Chloro-4-hydroxy-2-(1-(3-methoxypyrid-4-yl))ethyl-1,2,5,10-tetrahydropyridazino[4,5-b]quinoline-1,10-dione methanesulfonate] | 568 |  |
| COc1ccc(C(C)n2nc(O)c3[nH]c4cc(Cl)ccc4c(=O)c3c2=O)cn1 (racemic) [Ex. 14, (+/−)-7-Chloro-4-hydroxy-2-(1-(2-methoxypyrid-5-yl))ethyl-1,2,5,10-tetrahydropyridazino[4,5-b]quinoline-1,10-dione methanesulfonate] | 312 |  |
| CC(c1ccnc(Cl)c1)n1nc(O)c2[nH]c3cc(Cl)ccc3c(=O)c2c1=O (racemic) [Ex. 16, (+/−)-7-Chloro-1-hydroxy-2-(2-chloro(4-pyridyl)ethyl)-1,2,5,10-tetrahydropyridazino[4,5-b]quinoline-1,10-dione] | 51 |  |
| CS(=O)(=O)O.O=c1c2ccc(Cl)cc2[nH]c2c(O)nn(CCc3ccncc3)c(=O)c12 [Ex. 2, (+/−)-7-Chloro-4-hydroxy-2-(4-pyridyleth-1-yl)-1,2,5,10-tetrahydropyridazino[4,5-b]quinoline-1,10-dione methanesulfonate] |  | melting point: 245 to 248 °C |
| O=c1c2ccc(Cl)cc2[nH]c2c(O)nn(CCc3cccnc3Cl)c(=O)c12 [Ex. 15, (+/−)-7-Chloro-4-hydroxy-2-(2-chloro-pyrid-3-yl)ethyl-1,2,5,10-tetrahydropyridazino[4,5-b]quinoline-1,10-dione] | 676 |  |
| CC(c1cc2ccccc2s1)n1nc(O)c2[nH]c3cc(Cl)ccc3c(=O)c2c1=O (centres unmarked) [Ex. 21] | 177 |  |
| CC(c1ccc(C#N)s1)n1nc(O)c2[nH]c3cc(Cl)ccc3c(=O)c2c1=O (centres unmarked) [Ex. 22, 7-Chloro-4-hydroxy-2-(1-(5-cyanothien-2-yl)ethyl)-1,2,5,10-tetrahydropyridazino[4,5-b]quinoline-1,10-dione] | 692 |  |
| CC(c1cnccn1)n1nc(O)c2[nH]c3cc(Cl)ccc3c(=O)c2c1=O (centres unmarked) [Ex. 23, 7-Chloro-4-hydroxy-2-(ethyl-1-(pyrazin-2-yl))-1,2,5,10-tetrahydropyridazino [4,5-b]quinoline-1,10-dione] | 336 |  |
| (+/−)-7-Chloro-4-hydroxy-2-(4-pyridylprop-1-yl)-1,2,5,10-tetrahydropyridazino[4,5-b]quinoline-1,10-dione sodium methanesulfonate [Ex. 3] | 1940 | Test C %Inh. (percent decrease in hyperalgesia at the MED) ([2]; at the MED, compared to vehicle-treated animals): 10%; Test C MED (minimum effective dose) ([2]; dose giving statistically significant decrease in hyperalgesia): 30 mg/kg/day |
